Test system: probiotic bacteria
Test: Viability of probiotic bacteria with iron sources (general finding of the inventors)
Format: cell-based
Conditions: general statement; reconstitution of powder with a liquid

Question: Which “loss of viability of probiotic bacteria” value does the source give for O.O.O.O.O.O.O.O=S(=O)([O-])[O-].[Fe+2] [ferrous sulphate heptahydrate] here?
Answer: significant loss of viability
